Measured values reported in patent publication US20130096012A1, “METHOD AND KIT FOR IDENTIFYING A TRANSLATION INITIATION SITE ON AN MRNA” (CORNELL UNIVERSITY, priority 2011, published 2013).

What was measured:
HEK293 cells [1] = experiment: Ribosome profiling (deep sequencing of ribosome-protected mRNA fragments, GTI-seq) of drug-treated cells; format: cell-based, Human; conditions: 30 min, FIG. 1C; for distribution of RPF reads relative to the annotated start codon: 100 μM CHX, 50 μM LTM or 2 μg/ml harringtonine, metagene analysis, 1D
Text: FIGS. 1A-D show the experimental strategy of GTI-seq using ribosome E-site translation inhibitors. Specifically, FIG. 1A is a schematic diagram of the experimental design for GTI-seq. Translation inhibitors cycloheximide (“CHX”) and lactimidomycin (“LTM”) bind to the ribosome E-site, resulting in inhibition of translocation. While CHX binds to all translating ribosomes (FIG. 1A, left panel), LTM preferably incorporates into the initiating ribosomes when the E-site is free of tRNA (FIG. 1A, right panel). FIG. 1B is a schematic illustration showing ribosome profiling using CHX and LTM side-by-side, which allows distinguishing the initiating ribosome from the elongating one. FIG. 1C is a graph showing data related to HEK293 cells being treated with either DMSO, 100 μM CHX, or 50 μM LTM for 30 min before ribosome profiling. Normalized RPF reads were averaged across the entire transcriptome, aligned at either their start site or stop codon. FIG. 1D presents two graphs showing metagene analysis of RPFs obtained from HEK293 cells treated with either harringtonine (FIG. 1D, left panel) or LTM (FIG. 1D, right panel). All mapped reads were aligned at the annotated start codon AUG, and the reads density at each nucleotide position was averaged using the P-site of RPFs.
HEK293 or MEF cells were treated with 100 μM CHX, 50 μM LTM, 2 μg/ml harringtonine or DMSO at 37° C. for 30 min. Cells were lysed in polysome buffer and cleared lysates were separated by sedimentation through sucrose gradients. Collected polysome fractions were digested with RNase I and the RPF fragments were size selected and purified by gel extraction. After the construction of sequencing library from these fragments, deep sequencing was performed using IlluminaHiSEQ. The trimmed RPF reads with final lengths of 26-29 nt were aligned to the RefSeq transcript sequences by Bowtie-0.12.7 allowing one mismatch. A TIS position on individual transcript was called if the normalized LTM reads density at the every nucleotide position subtracting with that of CHX was well above the background. In analysis of non-coding RNA, only reads unique to single ncRNA were used. To experimentally validate the identified TIS codons, specific genes encompassing both the 5′UTR and the CDS were amplified by RT-PCR from total cellular RNAs extracted from HEK293 cells. The resultant cDNAs were cloned into pcDNA3.1 containing c-myc tag at the COOH-terminus. After transfection into HEK293 cells, whole cell lysates were used for immunoblotting using anti-myc antibody.
Human HEK293 and mouse embryonic fibroblast (“MEF”) were maintained in Dulbecco's Modified Eagle's Medium (“DMEM”) with 10% fetal bovine serum (“FBS”). Cycloheximide was purchased from Sigma and harringtonine from LKT Laboratories. […]

HEK293 cells [2] = experiment: Polysome profiling by sucrose gradient sedimentation of drug-treated cells; format: cell-based, Human; conditions: 100 μM CHX or 50 μM LTM, 30 min, compared to no-drug treatment (DMSO), FIG. 7
Procedure: FIG. 7 is a series of graphs showing polysome profile analysis in cells treated with ribosome E-site translation inhibitors. In particular, HEK293 cells were pre-treated with equal volume of DMSO, 100 μM CHX, or 50 μM LTM for 30 min followed by sucrose gradient sedimentation. Both 80S monosome and polysome peaks are indicated.
HEK293 or MEF cells were treated with 100 μM CHX, 50 μM LTM, 2 μg/ml harringtonine or DMSO at 37° C. for 30 min. Cells were lysed in polysome buffer and cleared lysates were separated by sedimentation through sucrose gradients. Collected polysome fractions were digested with RNase I and the RPF fragments were size selected and purified by gel extraction. […] The trimmed RPF reads with final lengths of 26-29 nt were aligned to the RefSeq transcript sequences by Bowtie-0.12.7 allowing one mismatch. A TIS position on individual transcript was called if the normalized LTM reads density at the every nucleotide position subtracting with that of CHX was well above the background. In analysis of non-coding RNA, only reads unique to single ncRNA were used. […]
Sucrose solution was prepared in polysome buffer (pH 7.4, 10 mM HEPES, 100 mM KCl, 5 mM MgCl2). […] Separated samples were fractionated at 0.750 ml/min through a fractionation system (Isco) that continually monitored OD254 values. […]

SMILES	distribution of RPF reads relative to the annotated start codon (HEK293 cells [1])	effect on polysome profile (80S monosome and polysome peaks) (HEK293 cells [2])	effect on ribosome (RPF) density at the stop codon (HEK293 cells [1]; 50 μM LTM, versus untreated cells or CHX)
COC(=O)C[C@](O)(CCC(C)(C)O)C(=O)O[C@@H]1C(OC)=C[C@]23CCCN2CCc2cc4c(cc2[C@H]13)OCO4 [harringtonine]	a substantial fraction of RPFs accumulated in regions downstream of the start codon	–	–
C[C@@H]1C[C@@H]([C@H](O)CC2CC(=O)NC(=O)C2)C(=O)[C@@H](C)C1 [CHX, cycloheximide]	an excess of RPFs at the beginning of ORFs in addition to the body of CDS	slightly stabilized the polysomes	–
C/C(=C\[C@H](C)C(=O)C[C@H](O)CC1CC(=O)NC(=O)C1)[C@@H]1OC(=O)/C=C/CC/C=C/C=C\[C@@H]1C [LTM, lactimidomycin]	pronounced single peak located at the −12 nucleotide (nt) position relative to the annotated start codon	large increase in monosome accompanied by a depletion of polysomes	eliminated the excess of ribosomes seen at the stop codon
